Laboratory results as given in paper PMC11432405, “Development of Novel Alaninamide Derivatives with Anticonvulsant Activity and Favorable Safety Profiles in Animal Models” (International Journal of Molecular Sciences, 2024).
Like-named read-outs stand apart in the source and are kept apart here.

Columns and labels:
HepG2 cells = assay: hepatocytotoxicity MTT viability assay; format: cell-based, human; details: 1–50 µM, 24 h
Procedure: (§1) To evaluate selected compounds’ hepatocytotoxicity and neurocytotoxicity, a human hepatocellular carcinoma cell line, HepG2 (ATCC® HB-8065™), and a human neuroblastoma cell line, SH-SY5Y (ATCC®, CRL-2266™), were used. Both cell lines were cultured in standard culture conditions (5% CO2, 37 °C, 95% humidity) using Dulbecco′s Modified Eagle′s—Medium (DMEM; Gibco, Thermo Scientific, Waltham, MA, USA) supplemented with 10% (vol/vol) fetal bovine serum (FBS; Gibco, Thermo Scientific, Waltham, MA, USA) and an antibiotic mixture (Penicillin, Streptomycin, Amphotericin B; Gibco, Thermo Scientific, Waltham, MA, USA). Cells were cultured with compounds 5, […], or 39 (1–50 µM) for 24 h and then an MTT (3-(4,5-dimethylthiazol-2-yl)-2,5diphenyltetrazolium bromide, Sigma-Aldrich, St. Louis, MO, USA) viability assay was performed. The formazan crystals were dissolved in DMSO (Sigma-Aldrich, St. Louis, MO, USA), and the absorbance at 570 nm was measured using a microplate reader (SpectraMax® iD3, Molecular Devices, San Jose, CA, USA). The experiment was performed three times in duplicate. Each bar represents the mean (±SEM) percentage of viable cells in comparison to the control (defined as 100% and represented by untreated cells).
Figure 2 The viability of HepG2 cells incubated in the presence of 5, 17, and 39. HepG2 cells were exposed to growing concentrations (1–50 µM) of tested compounds for 24 h. Cell viability was measured using an MTT assay. Bars represent mean percent of cell viability normalized to non-treated cells (100%) ± SEM. The doxorubicin was tested as a positive control.

SH-SY5Y cells = assay: neurocytotoxicity MTT viability assay; format: cell-based, human; details: 1–50 µM, 24 h
Procedure: as §1
Figure 3 The viability of SH-SY5Y cells incubated in the presence of compounds 5, 17, and 39. […] Cell viability was measured using an MTT assay. […]

[1] = test system: Cav1.2 (L-type) (diltiazem site); assay: radioligand binding Cav1.2 (L-type) diltiazem site; details: 100 µM, rat cerebral cortex
Procedure: (§2) Binding/functional studies were performed commercially in Cerep Laboratories (Poitiers, France) using testing procedures described elsewhere. The general information is listed in Table S3 in the Supporting Information.
(§3) Table S3. The general information of radioligand binding/functional assays. […]
Ca2+channel (L, diltiazem site) (antagonist radioligand) […]
(§4) Assays were performed commercially in Eurofins Cerep SA (Celle l’Evescault, France) and Eurofins
(§5) Panlabs Discovery Services Taiwan, Ltd. (New Taipei City, Taiwan), using procedures describe

[2] = test system: Cav1.2 (L-type) (verapamil site); assay: radioligand binding Cav1.2 (L-type) verapamil site; details: 100 µM, rat cerebral cortex
Procedure: as §2, §3
Ca2+channel (L, verapamil site) (antagonist radioligand) […]
as §4, §5

GlyT1 = target: T1, GlyT1 (Rattus norvegicus, UniProt P28572); assay: radioligand binding GlyT1; details: rat cerebral cortex
T1 construct: Cerep Laboratories / Eurofins (contract assay)
T1 sequence (P28572 1-638): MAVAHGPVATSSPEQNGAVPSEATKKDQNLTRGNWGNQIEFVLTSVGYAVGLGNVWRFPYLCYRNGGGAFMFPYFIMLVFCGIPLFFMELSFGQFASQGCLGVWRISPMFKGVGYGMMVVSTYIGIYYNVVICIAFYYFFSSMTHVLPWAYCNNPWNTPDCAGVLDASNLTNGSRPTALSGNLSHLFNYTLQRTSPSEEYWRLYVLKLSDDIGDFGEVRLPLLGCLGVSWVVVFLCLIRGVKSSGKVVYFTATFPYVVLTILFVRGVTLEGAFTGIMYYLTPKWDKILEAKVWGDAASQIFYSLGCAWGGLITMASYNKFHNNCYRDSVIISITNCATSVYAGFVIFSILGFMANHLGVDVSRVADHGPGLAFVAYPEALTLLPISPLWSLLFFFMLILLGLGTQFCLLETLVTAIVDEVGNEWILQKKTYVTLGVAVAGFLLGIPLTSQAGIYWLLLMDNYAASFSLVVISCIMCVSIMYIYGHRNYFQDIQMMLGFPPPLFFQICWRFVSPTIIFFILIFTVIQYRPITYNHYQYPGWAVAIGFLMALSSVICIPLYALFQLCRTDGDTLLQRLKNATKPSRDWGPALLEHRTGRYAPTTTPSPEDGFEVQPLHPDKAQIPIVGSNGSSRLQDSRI
Procedure: as §2, §3
GLYT1 (glycine transporter binding) (antagonist radioligand) […]
as §4, §5

Potassium channel (hERG) = target: T2, Potassium channel (hERG) (Homo sapiens, UniProt Q12809); assay: radioligand binding potassium channel (hERG); details: 100 µM, human recombinant HEK-293 cell
T2 construct: Cerep Laboratories / Eurofins (contract assay)
Procedure: as §2, §3
(§6) Potassium channel (hERG) […]
as §4, §5

hERG potassium channel = target: T3, hERG potassium channel (Homo sapiens, UniProt Q12809); assay: radioligand binding potassium channel (hERG); details: HEK-293 cells expressing human recombinant hERG, human recombinant HEK-293 cell, read-out: % Inhibition of Control Specific Binding
T3 construct: Cerep Laboratories / Eurofins (contract assay)
T3 sequence (Q12809 whole entry): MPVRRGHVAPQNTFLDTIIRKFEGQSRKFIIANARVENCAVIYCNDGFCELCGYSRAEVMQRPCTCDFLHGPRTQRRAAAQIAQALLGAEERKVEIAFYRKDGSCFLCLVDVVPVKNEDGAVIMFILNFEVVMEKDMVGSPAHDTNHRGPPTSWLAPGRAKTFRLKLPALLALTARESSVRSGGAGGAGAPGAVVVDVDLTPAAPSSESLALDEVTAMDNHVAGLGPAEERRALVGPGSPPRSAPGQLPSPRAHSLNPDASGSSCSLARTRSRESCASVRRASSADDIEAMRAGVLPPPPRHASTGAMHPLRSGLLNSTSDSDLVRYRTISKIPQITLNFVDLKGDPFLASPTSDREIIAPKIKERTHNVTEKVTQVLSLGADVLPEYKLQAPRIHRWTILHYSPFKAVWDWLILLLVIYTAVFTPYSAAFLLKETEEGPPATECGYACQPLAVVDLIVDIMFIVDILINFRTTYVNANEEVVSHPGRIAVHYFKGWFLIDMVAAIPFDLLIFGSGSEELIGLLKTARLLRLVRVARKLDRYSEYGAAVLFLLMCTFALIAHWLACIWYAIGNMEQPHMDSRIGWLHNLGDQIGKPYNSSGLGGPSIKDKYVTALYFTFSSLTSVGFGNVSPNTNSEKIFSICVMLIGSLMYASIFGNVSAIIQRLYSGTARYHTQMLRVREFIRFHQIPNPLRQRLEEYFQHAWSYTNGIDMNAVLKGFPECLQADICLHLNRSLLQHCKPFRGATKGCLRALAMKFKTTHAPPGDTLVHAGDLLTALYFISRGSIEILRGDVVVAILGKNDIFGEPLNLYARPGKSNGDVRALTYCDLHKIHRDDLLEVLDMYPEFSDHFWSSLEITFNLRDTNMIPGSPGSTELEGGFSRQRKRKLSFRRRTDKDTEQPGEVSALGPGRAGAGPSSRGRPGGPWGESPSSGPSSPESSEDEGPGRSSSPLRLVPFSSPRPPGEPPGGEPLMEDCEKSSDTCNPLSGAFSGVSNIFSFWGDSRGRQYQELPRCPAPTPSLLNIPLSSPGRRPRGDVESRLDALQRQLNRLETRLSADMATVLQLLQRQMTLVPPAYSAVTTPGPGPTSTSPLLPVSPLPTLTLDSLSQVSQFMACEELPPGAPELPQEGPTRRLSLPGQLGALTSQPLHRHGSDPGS
Procedure: as §2, §3, §6, §4, §5

[3] = target: T4, Cav1.2 (h) calcium ion channel (Homo sapiens, UniProt Q13936); assay: Cav1.2 (h) calcium ion channel cell-based antagonist calcium flux assay
T4 construct: Eurofins Cerep SA / Eurofins Panlabs Discovery Services Taiwan (contract assay)
T4 sequence (Q13936 whole entry): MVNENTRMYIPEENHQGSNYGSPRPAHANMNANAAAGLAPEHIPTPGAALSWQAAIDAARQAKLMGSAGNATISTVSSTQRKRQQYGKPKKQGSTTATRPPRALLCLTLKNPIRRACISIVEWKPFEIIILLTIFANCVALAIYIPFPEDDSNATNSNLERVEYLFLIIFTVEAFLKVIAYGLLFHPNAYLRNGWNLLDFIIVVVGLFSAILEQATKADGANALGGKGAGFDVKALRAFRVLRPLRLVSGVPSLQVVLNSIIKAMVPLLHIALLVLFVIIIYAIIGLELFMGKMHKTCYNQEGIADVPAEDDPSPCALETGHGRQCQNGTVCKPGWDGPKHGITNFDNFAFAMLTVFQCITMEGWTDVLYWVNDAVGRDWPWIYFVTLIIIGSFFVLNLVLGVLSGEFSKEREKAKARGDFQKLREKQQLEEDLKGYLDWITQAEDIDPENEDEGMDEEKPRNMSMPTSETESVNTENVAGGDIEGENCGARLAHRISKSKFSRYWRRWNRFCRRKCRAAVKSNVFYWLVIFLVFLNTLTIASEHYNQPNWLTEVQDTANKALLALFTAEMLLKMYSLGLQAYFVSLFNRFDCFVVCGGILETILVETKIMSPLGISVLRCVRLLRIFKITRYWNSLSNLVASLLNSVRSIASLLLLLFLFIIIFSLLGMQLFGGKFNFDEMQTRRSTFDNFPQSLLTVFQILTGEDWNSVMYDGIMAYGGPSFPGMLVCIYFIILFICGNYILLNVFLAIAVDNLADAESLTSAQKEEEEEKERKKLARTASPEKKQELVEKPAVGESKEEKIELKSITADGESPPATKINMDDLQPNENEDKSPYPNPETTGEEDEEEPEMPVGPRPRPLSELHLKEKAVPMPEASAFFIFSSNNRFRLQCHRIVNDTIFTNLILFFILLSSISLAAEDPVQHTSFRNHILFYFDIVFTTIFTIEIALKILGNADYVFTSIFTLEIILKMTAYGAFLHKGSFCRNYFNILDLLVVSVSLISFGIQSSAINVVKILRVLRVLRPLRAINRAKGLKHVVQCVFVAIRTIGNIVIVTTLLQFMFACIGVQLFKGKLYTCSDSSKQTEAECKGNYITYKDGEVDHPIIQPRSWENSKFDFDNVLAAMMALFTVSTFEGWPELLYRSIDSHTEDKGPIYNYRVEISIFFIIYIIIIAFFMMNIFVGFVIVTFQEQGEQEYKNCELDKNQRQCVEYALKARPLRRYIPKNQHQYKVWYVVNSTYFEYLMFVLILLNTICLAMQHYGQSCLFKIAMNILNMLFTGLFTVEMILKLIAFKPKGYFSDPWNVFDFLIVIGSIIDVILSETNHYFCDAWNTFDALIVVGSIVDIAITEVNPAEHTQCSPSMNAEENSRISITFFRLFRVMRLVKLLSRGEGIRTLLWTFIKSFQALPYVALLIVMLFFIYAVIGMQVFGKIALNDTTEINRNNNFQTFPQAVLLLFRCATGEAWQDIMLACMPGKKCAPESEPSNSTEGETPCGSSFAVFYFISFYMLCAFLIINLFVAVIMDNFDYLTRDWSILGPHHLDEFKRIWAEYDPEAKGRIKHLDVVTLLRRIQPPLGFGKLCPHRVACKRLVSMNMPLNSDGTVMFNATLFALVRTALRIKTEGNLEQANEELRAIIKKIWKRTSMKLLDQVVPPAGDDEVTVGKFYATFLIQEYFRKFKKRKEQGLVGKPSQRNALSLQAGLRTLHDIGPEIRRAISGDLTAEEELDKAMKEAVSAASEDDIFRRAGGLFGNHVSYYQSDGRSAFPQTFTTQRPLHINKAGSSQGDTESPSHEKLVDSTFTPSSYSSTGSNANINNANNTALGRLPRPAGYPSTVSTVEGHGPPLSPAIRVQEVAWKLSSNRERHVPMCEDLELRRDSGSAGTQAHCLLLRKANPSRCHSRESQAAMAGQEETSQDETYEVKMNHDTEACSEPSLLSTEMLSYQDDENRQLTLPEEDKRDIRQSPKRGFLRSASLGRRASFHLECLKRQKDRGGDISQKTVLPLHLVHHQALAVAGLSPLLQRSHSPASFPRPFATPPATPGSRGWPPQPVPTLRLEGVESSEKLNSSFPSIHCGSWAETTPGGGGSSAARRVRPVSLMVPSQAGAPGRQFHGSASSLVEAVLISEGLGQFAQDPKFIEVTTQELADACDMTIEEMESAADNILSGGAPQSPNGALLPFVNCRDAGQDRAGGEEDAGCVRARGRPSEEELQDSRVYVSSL
T4 sequence (Q08289 whole entry partner): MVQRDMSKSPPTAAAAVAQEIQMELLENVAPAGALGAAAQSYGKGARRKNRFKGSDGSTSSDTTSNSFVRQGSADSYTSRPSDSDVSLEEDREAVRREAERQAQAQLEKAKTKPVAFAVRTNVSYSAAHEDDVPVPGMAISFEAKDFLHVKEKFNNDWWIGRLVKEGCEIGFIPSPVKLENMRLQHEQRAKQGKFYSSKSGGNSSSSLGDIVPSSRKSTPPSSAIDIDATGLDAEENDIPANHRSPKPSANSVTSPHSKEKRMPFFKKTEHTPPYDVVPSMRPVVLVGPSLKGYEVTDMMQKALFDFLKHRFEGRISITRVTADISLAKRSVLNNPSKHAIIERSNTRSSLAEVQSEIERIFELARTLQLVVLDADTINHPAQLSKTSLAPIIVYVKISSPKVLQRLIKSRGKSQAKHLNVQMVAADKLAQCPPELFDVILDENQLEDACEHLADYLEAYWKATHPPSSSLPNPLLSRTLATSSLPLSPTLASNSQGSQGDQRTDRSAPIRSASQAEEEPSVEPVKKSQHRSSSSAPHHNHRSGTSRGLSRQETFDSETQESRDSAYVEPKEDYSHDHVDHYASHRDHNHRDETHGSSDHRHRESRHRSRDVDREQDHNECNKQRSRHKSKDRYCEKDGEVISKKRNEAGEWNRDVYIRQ
T4 sequence (P54289 25-1103 partner): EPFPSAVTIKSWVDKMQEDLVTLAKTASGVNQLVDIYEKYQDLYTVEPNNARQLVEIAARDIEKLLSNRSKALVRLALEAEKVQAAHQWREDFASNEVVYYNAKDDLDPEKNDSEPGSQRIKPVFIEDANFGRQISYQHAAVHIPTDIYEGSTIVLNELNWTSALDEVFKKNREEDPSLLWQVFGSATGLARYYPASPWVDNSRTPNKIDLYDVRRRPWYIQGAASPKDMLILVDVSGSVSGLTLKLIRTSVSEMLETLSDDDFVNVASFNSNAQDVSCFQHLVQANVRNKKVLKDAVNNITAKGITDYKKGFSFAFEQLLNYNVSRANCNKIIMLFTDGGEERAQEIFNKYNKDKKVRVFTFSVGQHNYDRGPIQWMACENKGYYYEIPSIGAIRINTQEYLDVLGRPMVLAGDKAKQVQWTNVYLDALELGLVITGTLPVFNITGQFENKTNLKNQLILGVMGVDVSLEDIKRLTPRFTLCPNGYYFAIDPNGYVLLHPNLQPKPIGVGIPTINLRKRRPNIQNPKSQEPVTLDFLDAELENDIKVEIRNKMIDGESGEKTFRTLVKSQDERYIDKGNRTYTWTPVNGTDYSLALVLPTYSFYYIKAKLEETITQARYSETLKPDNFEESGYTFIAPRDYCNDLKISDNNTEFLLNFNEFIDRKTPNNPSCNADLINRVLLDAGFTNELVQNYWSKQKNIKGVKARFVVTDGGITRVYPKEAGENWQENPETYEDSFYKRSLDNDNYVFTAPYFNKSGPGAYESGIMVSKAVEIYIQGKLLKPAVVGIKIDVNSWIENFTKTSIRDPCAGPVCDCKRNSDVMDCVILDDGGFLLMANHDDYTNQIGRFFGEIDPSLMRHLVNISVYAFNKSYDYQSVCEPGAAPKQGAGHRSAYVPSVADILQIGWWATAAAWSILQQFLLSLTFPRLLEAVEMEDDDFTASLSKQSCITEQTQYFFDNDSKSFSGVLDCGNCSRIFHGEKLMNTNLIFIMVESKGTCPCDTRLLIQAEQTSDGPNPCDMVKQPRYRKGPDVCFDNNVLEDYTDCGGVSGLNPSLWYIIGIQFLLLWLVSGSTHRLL
Procedure: as §2, §3
Cav1.2 (L-type) (h) calcium ion channel cell based antagonist calcium flux assay
as §4, §5

6 Hz (44 mA) seizures = assay: 6 Hz (44 mA) psychomotor seizure model

**Q.** Which “toxic effect on HepG2 cell viability (MTT)” value (HepG2 cells) does the source give for `CC(C(=O)NCc1ccc(OCc2ccccc2)cc1)N1C(=O)CCC1=O` (stereo not shown) [Compound 5, N-(4-(benzyloxy)benzyl)-2-(2,5-dioxopyrrolidin-1-yl)propanamide] here?
**A.** do not exhibit toxic effects

**Q.** And the “toxic effect on SH-SY5Y cell viability (MTT)” value (SH-SY5Y cells)?
**A.** do not exhibit toxic effects

**Q.** What about the “% Inhibition of Control Specific Binding” value [1] of the same compound?
**A.** 68.5 (100) %

**Q.** And the “% Inhibition of Control Specific Binding” value [2]?
**A.** 57.1 (100) %

**Q.** What about the “% Inhibition of Control Specific Binding” value (GlyT1; 100 µM) of the same compound?
**A.** no significant interaction

**Q.** What about the inhibition at 100 µM (GlyT1; read-out: % Inhibition of Control Specific Binding) of the same compound?
**A.** 23%

**Q.** And the “% Inhibition of Control Specific Binding” value (Potassium channel (hERG))?
**A.** did not bind

**Q.** And the inhibition at 100 µM (hERG potassium channel)?
**A.** 4.5%

**Q.** And the inhibition at 100 µM ([3]; HEK293, human recombinant HEK-293 cell, read-out: % Inhibition of Control Agonist Response)?
**A.** 85%

**Q.** What about the inhibition at 100 µM ([3]; read-out: inhibition rate of the Cav1.2 (L-type) calcium channel (text summary of binding and functional assays)) of the same compound?
**A.** > 50%

**Q.** What about the melting point of the same compound?
**A.** 102.9 to 103.4 °C

**Q.** What about the ED50 (6 Hz (44 mA) seizures; Mus musculus, ip, 0.5 h, read-out: ED50 6 Hz (44 mA)) of the same compound?
**A.** 201 mg/kg

**Q.** What about the “PI (TD50/ED50) 6 Hz (44 mA)” value (6 Hz (44 mA) seizures; TD50 rotarod / ED50 6 Hz (44 mA)) of the same compound?
**A.** >1.5
